Assay [1] addresses T1, RORγ-LBD (Homo sapiens (Human), UniProt P51449). The experiment in a line: RORγ-Ligand Binding Domain (LBD) TR-FRET Assay Protocol I. The assay is classed as biochemical. Conditions: for EC50: RORγ-LBD lysate from SF9 cells, SRC1-2 peptide; for RORγ inhibition: Protocol I, assay measuring EC50 values less than or equal to 10 μM. As for the experimental part: Part I—Procedures for RORγ-Ligand Binding Domain TR-FRET Assay Protocol I
Recombinant,HIS-tagged RORγ-LBD was expressed in SF9 cells using a baculovirus expression system. Cells were lysed and the lysate was used as a source for RORγ-LBD for the assay. A 1:80 dilution of RORγ-LBD lysate in assay buffer (25 mM HEPES pH 7.0, 100 mM NaCl, 0.01% Tween, 0.1% BSA) was prepared and 5 μL was added to each well (RORγ-LBD final concentration ˜3 nM). Control wells received lysate from SF9 cells not expressing RORγ-LBD.
Compounds to be tested were diluted to 100× final test concentration in DMSO and further diluted to 4× final test concentration using assay buffer to provide the test compound mixture. An aliquot (5 μL) of the test compound mixture was added to each well.
A 4× stock of biotinylated-LXXLL peptide from SRC1-2 (Biotin-[…]) was prepared in assay buffer and a 5 μL aliquot added to each well (450 nM final concentration). A 4× solution of europium tagged anti-HIS antibody (2 nM final concentration) and APC conjugated streptavidin (60 nM final concentration) were prepared and a 5 μL aliquot added to each well.
The final assay mixture was incubated for 4 hours to overnight, and the fluorescence signal was measured on an Envision plate reader: (Excitation filter=340 nm; APC emission=665 nm; Europium emission=615 nm; dichroic mirror=D400/D630; delay time=100 μs, integration time=200 μs).
EC50 values for test compounds were calculated from the quotient of the fluorescence signal at 665 nm divided by the fluorescence signal at 615 nm using GraphPad Prism software
A general note: TR-FRET usually uses a lanthanide donor and a delayed reading to cut background.

For assay [2], the target named is T1, RORγ-LBD. The experiment in a line: RORγ-Ligand Binding Domain (LBD) TR-FRET Assay Protocol II. The assay is classed as biochemical. Conditions: purified RORγ-LBD, SRC1 peptide, overnight at 4° C. As for the experimental part:
Part II—Procedures for RORγ-Ligand Binding Domain TR-FRET Assay Protocol II
HIS-tagged RORγ-LBD protein was expressed in SF9 cells using a baculovirus expression system. The RORγ-LBD protein was purified by […]. Separately, SF9 cells not expressing recombinant protein were lysed in TBS buffer (25 mM Tris, pH 8.0, 150 mM NaCl) under sonication. The lysate was added to the purified RORγ-LBD in a volume equivalent of 0.75 μL lysate (from 30,000 SF9 cells) per 75 femtomol of RORγ-LBD protein. The resulting mixture was diluted in assay buffer (50 mM Tris pH 7.0, 50 mM KCl, 1 mM EDTA, 0.1 mM DTT, 0.01% BSA) to obtain RORγ-LBD protein at a final concentration of 3 nM.
Compounds to be tested were injected to the assay plate using Acoustic Droplet Ejection technology by Echo 550 liquid handler (Labcyte, Calif.).
A stock of biotinylated-LXXLL peptide from coactivator SRC1 (Biotin-[…]) was prepared in assay buffer and added to each well (100 nM final concentration). A solution of Europium tagged anti-HIS antibody (1.25 nM final concentration) and APC-conjugated streptavidin (8 nM final concentration) were also added to each well.
The final assay mixture was incubated overnight at 4° C., and the fluorescence signal was measured on an Envision plate reader: (Excitation filter=340 nm; APC emission=665 nm; Europium emission=615 nm; dichroic mirror=D400/D630; delay time=100 μs, integration time=200 μs). The EC50 value for test compounds was calculated from the quotient of the fluorescence signal at 665 nm divided by the fluorescence signal at 615 nm

The structures appear in SMILES notation.

T1 sequence (P51449 269-508): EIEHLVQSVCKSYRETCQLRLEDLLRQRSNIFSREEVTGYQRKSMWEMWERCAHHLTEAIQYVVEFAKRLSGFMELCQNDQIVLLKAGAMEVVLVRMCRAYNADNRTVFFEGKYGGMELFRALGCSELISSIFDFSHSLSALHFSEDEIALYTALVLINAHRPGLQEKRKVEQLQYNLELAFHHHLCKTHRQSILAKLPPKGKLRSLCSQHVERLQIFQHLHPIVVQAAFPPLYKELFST

What is called EC50 is the concentration that produces a half-maximal response. Low readings indicate an effect from little substance, high ones a need for much substance. Consider `O=C(Nc1cnc2cnn(S(=O)(=O)c3cccc(C(F)(F)F)c3)c2c1)c1c(F)cccc1Cl` [Compound 1, 2-chloro-6-fluoro-N-[1-(3-trifluoromethylbenzenesulfonyl)-1H-pyrazolo[4,3-b]pyridin-6-yl]benzamide], for which the concentration giving a half-maximal response (EC50) in assay [1] stood at 1880 nM; in assay [2], 25 nM.
As to `O=C(Nc1cc2c(cn1)cnn2S(=O)(=O)c1ccc(F)cc1)c1c(F)cccc1Cl` [Compound 2, 2-chloro-6-fluoro-N-[1-(4-fluorobenzenesulfonyl)-1H-pyrazolo-[4,3-c]pyridin-6-yl]benzamide], in assay [1], the 50% effective concentration (EC50) is 2400 nM.
`N#Cc1cccc(S(=O)(=O)n2ncc3ncc(NC(=O)c4c(F)cccc4Cl)cc32)c1` [Compound 3]: in assay [1], the RORγ inhibition result is reported as “did not provide measurable RORγ inhibition” and the concentration giving a half-maximal response (EC50) worked out at 48000 nM.
Turning to `O=C(Nc1cc2c(cn1)cnn2S(=O)(=O)c1ccc(F)cc1)c1c(F)cccc1F` [Compound 4], in assay [1], the RORγ inhibition entry is listed as “did not provide measurable RORγ inhibition” and it took 50000 nM to reach a half-maximal effect (EC50).
In the case of `O=C(Nc1cc2c(cn1)cnn2S(=O)(=O)c1ccc(F)cc1)c1c(Cl)cccc1Cl` [Compound 5], in assay [1], the EC50 amounted to 2610 nM.
In assay [1], `O=C(Nc1cc2c(cn1)cnn2S(=O)(=O)c1ccc(F)cc1)c1c(Cl)cccc1C(F)(F)F` [Compound 6] registered an EC50 of 2410 nM.
`O=C(Nc1cc2c(cn1)cnn2S(=O)(=O)c1cccc(Cl)c1)c1c(F)cccc1Cl` [Compound 7] gave a concentration for a half-maximal effect (EC50) in assay [1] of 6440 nM.
Consider `O=C(Nc1cc2c(cn1)cnn2S(=O)(=O)c1cccc(OC(F)F)c1)c1c(F)cccc1Cl` [Compound 8], for which, in assay [1], the EC50 was determined as 1060 nM.
For the compound `CC(C)(C)c1cccc(S(=O)(=O)n2ncc3cnc(NC(=O)c4c(F)cccc4Cl)cc32)c1` [Compound 9], in assay [1], the concentration giving a half-maximal response (EC50) amounted to 3520 nM.
On to `O=C(Nc1cc2c(cn1)cnn2S(=O)(=O)c1cccc(C(F)(F)F)c1)c1c(F)cccc1Cl` [Compound 10], for which the EC50 turned out to be 3620 nM in assay [1] and 4330 nM in assay [2].
Regarding `Cc1nn(C(F)F)cc1S(=O)(=O)n1ncc2cnc(NC(=O)c3c(F)cccc3Cl)cc21` [Compound 11], the EC50 is 447 nM in assay [1] and 324 nM in assay [2].
The matching figures for `CC1COc2ncc(NC(=O)c3c(F)cccc3Cl)cc2N1S(=O)(=O)c1ccc(F)cc1` (stereo not drawn) [Compound 12, 2-chloro-6-fluoro-N-[1-(4-fluorobenzenesulfonyl)-2-methyl-2,3-dihydro-1H-pyrido[2,3-b][1,4]oxazin-7-yl]benzamide]: 250 nM and 66 nM.
As to `O=C(Nc1cnc2c(c1)N(S(=O)(=O)c1ccc(F)cc1)CCO2)c1c(F)cccc1Cl` [Compound 13, 2-chloro-6-fluoro-N-[1-(4-fluorobenzenesulfonyl)-2,3-dihydro-1H-pyrido[2,3-b][1,4]oxazin-7-yl]benzamide], in assay [1], the half-maximal effective concentration (EC50) turned out to be 174 nM.
In the case of `Cc1cccc(S(=O)(=O)N2C[C@H](C)Oc3ncc(NC(=O)c4c(F)cccc4Cl)cc32)c1` [Compound 14, (S)-2-chloro-6-fluoro-N-(3-methyl-1-(m-tolylsulfonyl)-2,3-dihydro-1H-pyrido[2,3-b][1,4]oxazin-7-yl)benzamide], the results for the 50% effective concentration (EC50) in assay [1] and in assay [2] were 166 nM and 22 nM, respectively.
Take `CCc1cccc(S(=O)(=O)N2C[C@H](C)Oc3ncc(NC(=O)c4c(F)cccc4Cl)cc32)c1` [Compound 15, (S)-2-chloro-N-(1-((3-ethylphenyl)sulfonyl)-3-methyl-2,3-dihydro-1H-pyrido-[2,3-b][1,4]oxazin-7-yl)-6-fluorobenzamide]: the results for the EC50 in assay [1] and in assay [2] were 31 nM and 10 nM, respectively.
`CC(=O)NC[C@H]1CN(S(=O)(=O)c2cccc(C)c2)c2cc(NC(=O)c3c(F)cccc3Cl)cnc2O1` [Compound 16, (S)-N-(3-(acetamidomethyl)-1-(m-tolylsulfonyl)-2,3-dihydro-1H-pyrido[2,3-b][1,4]oxazin-7-yl)-2-chloro-6-fluorobenzamide]: the figures for the EC50 in assay [1] and in assay [2] were 336 nM and 123 nM, respectively.
For `CC(=O)NC[C@H]1CN(S(=O)(=O)c2cccc(C)c2)c2cc(NC(=O)[C@@H](C)c3ccccc3)cnc2O1` [Compound 17, (S)-N-((S)-3-(Acetamidomethyl)-1-(m-tolylsulfonyl)-2,3-dihydro-1H-pyrido[2,3-b][1,4]oxazin-7-yl)-2-phenylpropanamide], the results for the EC50 in assay [1] and in assay [2] were 760 nM and 107 nM, respectively.
For the compound `CC1COc2ncc(NC(=O)c3c(Cl)cccc3C(F)(F)F)cc2N1S(=O)(=O)c1ccc(F)cc1` (stereo not drawn) [Compound 19], the response in assay [1] was half-maximal at 20 nM (EC50).
Regarding `CC1COc2ncc(NC(=O)c3c(F)cccc3Cl)cc2N1S(=O)(=O)c1cccc(C#N)c1` (stereo not drawn) [Compound 20], the concentration giving a half-maximal response (EC50) in assay [1] amounted to 390 nM; in assay [2] it was 108 nM.
Take `N#Cc1cccc(S(=O)(=O)N2CCOc3ncc(NC(=O)c4c(F)cccc4Cl)cc32)c1` [Compound 21]: a half-maximal response in assay [1] (EC50) required 200 nM.
`O=C(Nc1cnc2c(c1)N(S(=O)(=O)c1ccc(Cl)cc1)CCO2)c1c(F)cccc1Cl` [Compound 22]: the EC50 in assay [1] is 90 nM.
The compound `O=C(Nc1cnc2c(c1)N(S(=O)(=O)c1ccc(F)c(F)c1)CCO2)c1c(F)cccc1Cl` [Compound 23] returned a concentration for a half-maximal effect (EC50) in assay [1] of 100 nM.
With `Cc1cccc(S(=O)(=O)N2C[C@H](C)Oc3ncc(NC(=O)c4c(F)cccc4C(F)(F)F)cc32)c1` [Compound 24], the EC50 stood at 132 nM in assay [1] and 6 nM in assay [2].
Take `C[C@H]1CN(S(=O)(=O)c2cccc(C#N)c2)c2cc(NC(=O)c3c(F)cccc3Cl)cnc2O1` [Compound 25]: the EC50 in assay [1] stood at 1030 nM; in assay [2], 70 nM.
`C[C@H]1CN(S(=O)(=O)c2ccc(F)cc2)c2cc(NC(=O)c3c(F)cccc3Cl)cnc2O1` [Compound 26]: the EC50 turned out to be 829 nM in assay [1] and 63 nM in assay [2].
Take `C[C@H]1CN(S(=O)(=O)c2cccc(C3CC3)c2)c2cc(NC(=O)c3c(F)cccc3Cl)cnc2O1` [Compound 27]: the EC50 in assay [1] came to 20 nM; in assay [2] it was 11 nM.
As for `Cc1cccc(S(=O)(=O)N2C[C@H](C)Oc3ncc(NC(=O)[C@@H](C)c4ccccc4)cc32)c1` [Compound 28], the concentration giving a half-maximal response (EC50) turned out to be 810 nM in assay [1] and 73 nM in assay [2].
The corresponding values for `C[C@H](C(=O)Nc1cnc2c(c1)N(S(=O)(=O)c1ccc(F)cc1)C[C@H](C)O2)c1ccccc1` [Compound 29] are 3050 nM and 387 nM.
In the case of `O=C(Nc1cnc2c(c1)N(S(=O)(=O)c1ccc(F)cc1)CCC2)c1c(F)cccc1F` [Compound 36, 2,6-difluoro-N-(5-(4-fluorobenzenesulfonyl)-5,6,7,8-tetrahydro-[1,5]naphthyridin-3-yl)benzamide], the 50% effective concentration (EC50) amounted to 700 nM in assay [1] and 202 nM in assay [2].
On to `Cc1cccc(S(=O)(=O)N2CCCc3ncc(NC(=O)c4c(F)cccc4Cl)cc32)c1` [Compound 37, 2-chloro-6-fluoro-N-(5-(m-tolylsulfonyl)-5,6,7,8-tetrahydro-1,5-naphthyridin-3-yl)benzamide], for which the EC50 in assay [1] turned out to be 52 nM; in assay [2], 16 nM.
For the compound `Cc1cccc(S(=O)(=O)N2CCCc3ncc(NC(=O)[C@@H](C)c4ccccc4)cc32)c1` [Compound 38, (S)-2-phenyl-N-(5-(m-tolylsulfonyl)-5,6,7,8-tetrahydro-1,5-naphthyridin-3-yl)propanamide], the 50% effective concentration (EC50) came out at 414 nM in assay [1] and 61 nM in assay [2].

The values are drawn from US9657033B2, “Tetrahydronaphthyridine and related bicyclic compounds for inhibition of RORγ activity and the treatment of disease” (Merck Sharp & Dohme Corp., priority 2012, dated 2017).
